Values quoted from earlier work as cited in patent US20080063637A1, “Regulation of oncogenesis by Akt-specific isoforms” (The Trustees of Tufts College, priority 2006, published 2008).

Tests used:
[1] = tested on: corresponding Akt isoforms (phosphorylation by PDK1); conditions: Barnett et al. 2005
[2] = tested on: LNCap prostate cancer cells; conditions: Barnett et al. 2005

O=c1[nH]c2ccccc2n1C1CCN(Cc2ccc(-c3nc4cc5nc[nH]c5cc4nc3-c3ccccc3)cc2)CC1 [Akt-I-1,2]
phosphorylation and activation of the corresponding Akt isoforms by PDK1 [1]: blocked
TRAIL-induced apoptosis [2]: promote
